A word on the AC50: it is the concentration giving half of the maximal activity seen. The low end stands for activity at low concentration, the high end for activity only at high concentration.

For 8 compounds, AC50 results are on record in ChEMBL document CHEMBL5291721, “A preclinical secondary pharmacology resource illuminates target-adverse drug reaction associations of marketed drugs” (Nat Commun, 2023).

A value given as a limit tells only on which side of the number the result lay.

In assay [1] the target is T1, Muscarinic acetylcholine receptor M2 (Homo sapiens, UniProt P08172).
T1 sequence (P08172 whole entry): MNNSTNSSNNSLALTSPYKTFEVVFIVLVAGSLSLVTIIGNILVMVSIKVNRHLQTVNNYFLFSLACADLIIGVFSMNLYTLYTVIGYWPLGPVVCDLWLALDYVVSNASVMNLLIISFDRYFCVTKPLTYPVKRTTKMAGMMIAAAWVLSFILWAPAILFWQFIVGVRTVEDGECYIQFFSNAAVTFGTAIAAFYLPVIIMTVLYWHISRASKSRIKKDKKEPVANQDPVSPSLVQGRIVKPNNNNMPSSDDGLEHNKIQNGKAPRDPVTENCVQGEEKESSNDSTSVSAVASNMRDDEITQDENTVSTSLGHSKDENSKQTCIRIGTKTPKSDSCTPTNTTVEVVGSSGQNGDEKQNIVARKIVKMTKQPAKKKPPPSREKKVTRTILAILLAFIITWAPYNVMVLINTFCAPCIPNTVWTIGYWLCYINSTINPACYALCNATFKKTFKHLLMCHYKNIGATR

For assay [2], the target named is T2, Thromboxane A2 receptor (Homo sapiens, UniProt P21731).
T2 sequence (P21731 whole entry): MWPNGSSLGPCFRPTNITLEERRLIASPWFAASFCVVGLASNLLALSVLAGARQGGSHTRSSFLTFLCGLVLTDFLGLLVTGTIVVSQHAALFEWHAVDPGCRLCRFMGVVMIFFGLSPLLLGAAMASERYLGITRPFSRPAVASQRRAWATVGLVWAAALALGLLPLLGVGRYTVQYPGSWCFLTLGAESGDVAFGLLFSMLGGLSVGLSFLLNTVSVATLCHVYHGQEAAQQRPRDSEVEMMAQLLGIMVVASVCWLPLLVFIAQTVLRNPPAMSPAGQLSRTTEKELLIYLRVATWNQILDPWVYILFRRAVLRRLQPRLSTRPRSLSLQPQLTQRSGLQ
It counts as functional, cell-based.

Assay [3] concerns the target T2, Thromboxane A2 receptor. In kind it is functional.
The target in assay [4] is T3, Androgen receptor (Rattus norvegicus, UniProt P15207).
T3 sequence (P15207 whole entry): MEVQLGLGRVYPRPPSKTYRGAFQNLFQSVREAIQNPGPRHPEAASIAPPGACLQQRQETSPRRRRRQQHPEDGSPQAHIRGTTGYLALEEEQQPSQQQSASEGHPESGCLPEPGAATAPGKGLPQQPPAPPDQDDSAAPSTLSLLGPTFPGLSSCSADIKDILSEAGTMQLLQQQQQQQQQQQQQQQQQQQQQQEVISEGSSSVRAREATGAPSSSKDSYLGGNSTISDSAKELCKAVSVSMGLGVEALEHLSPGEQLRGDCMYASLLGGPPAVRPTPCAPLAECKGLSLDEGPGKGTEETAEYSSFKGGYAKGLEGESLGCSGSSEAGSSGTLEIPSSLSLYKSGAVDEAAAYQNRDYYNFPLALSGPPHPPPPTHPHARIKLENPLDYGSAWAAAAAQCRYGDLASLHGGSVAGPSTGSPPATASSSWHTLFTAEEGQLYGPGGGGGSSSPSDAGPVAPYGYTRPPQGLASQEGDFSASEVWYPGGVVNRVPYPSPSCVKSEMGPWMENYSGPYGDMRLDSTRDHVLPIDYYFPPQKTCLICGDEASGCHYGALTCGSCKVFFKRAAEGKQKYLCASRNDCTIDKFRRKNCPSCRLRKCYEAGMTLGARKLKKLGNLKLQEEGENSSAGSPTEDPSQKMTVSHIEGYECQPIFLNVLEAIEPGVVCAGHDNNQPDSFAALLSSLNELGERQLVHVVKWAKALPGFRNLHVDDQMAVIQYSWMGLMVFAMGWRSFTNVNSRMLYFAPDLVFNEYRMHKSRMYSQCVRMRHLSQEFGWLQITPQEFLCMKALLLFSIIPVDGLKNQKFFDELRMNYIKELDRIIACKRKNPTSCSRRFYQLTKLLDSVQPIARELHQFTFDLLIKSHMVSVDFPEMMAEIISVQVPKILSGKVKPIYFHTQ
It counts as functional.

The target of assay [5] is Hydroxycarboxylic acid receptor 2 (Homo sapiens, UniProt Q8TDS4).
Hydroxycarboxylic acid receptor 2, sequence (Q8TDS4 whole entry): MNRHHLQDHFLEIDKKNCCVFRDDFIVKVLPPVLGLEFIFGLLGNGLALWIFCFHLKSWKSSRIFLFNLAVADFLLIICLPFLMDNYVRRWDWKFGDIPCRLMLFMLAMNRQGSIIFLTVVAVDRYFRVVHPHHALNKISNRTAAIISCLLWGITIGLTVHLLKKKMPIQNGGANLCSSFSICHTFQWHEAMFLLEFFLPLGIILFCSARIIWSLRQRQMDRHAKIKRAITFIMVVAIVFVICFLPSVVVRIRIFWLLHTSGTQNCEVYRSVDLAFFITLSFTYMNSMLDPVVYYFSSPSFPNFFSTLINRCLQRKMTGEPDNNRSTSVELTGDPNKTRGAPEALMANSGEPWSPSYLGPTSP
The target of assay [6] is Synaptic vesicular amine transporter (Rattus norvegicus, UniProt Q01827). In kind it is functional.
Synaptic vesicular amine transporter, sequence (Q01827 whole entry): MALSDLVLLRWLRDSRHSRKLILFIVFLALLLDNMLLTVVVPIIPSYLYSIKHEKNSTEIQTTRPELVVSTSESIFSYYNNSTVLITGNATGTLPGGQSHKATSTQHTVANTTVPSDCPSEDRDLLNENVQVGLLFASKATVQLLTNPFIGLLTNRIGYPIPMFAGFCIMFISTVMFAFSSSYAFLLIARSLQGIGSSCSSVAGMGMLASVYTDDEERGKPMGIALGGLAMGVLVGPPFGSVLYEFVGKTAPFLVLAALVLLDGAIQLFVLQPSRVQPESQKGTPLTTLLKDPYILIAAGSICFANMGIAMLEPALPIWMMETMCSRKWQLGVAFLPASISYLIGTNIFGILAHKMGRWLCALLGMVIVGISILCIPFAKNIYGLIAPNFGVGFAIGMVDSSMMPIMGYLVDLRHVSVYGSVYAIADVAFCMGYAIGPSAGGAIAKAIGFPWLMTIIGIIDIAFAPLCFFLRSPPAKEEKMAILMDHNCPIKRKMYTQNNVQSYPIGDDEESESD
The target of assay [7] is T4, Peroxisome proliferator-activated receptor gamma (Homo sapiens, UniProt P37231).
T4 sequence (P37231 whole entry): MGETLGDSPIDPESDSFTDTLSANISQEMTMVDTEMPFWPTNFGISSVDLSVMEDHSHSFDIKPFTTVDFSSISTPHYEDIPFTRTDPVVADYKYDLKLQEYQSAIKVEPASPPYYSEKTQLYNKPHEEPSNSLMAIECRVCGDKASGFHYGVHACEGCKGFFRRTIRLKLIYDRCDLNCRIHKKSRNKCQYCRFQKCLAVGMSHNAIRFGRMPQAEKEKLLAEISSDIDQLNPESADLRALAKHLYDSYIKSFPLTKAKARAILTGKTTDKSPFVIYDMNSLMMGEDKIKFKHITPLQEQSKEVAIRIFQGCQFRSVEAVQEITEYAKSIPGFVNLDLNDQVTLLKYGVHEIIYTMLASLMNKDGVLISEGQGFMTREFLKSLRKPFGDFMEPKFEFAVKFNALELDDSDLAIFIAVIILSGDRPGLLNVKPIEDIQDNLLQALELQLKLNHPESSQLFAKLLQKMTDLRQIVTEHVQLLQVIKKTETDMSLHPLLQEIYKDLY
It counts as functional.

Assay [8] concerns the target T4, Peroxisome proliferator-activated receptor gamma. In kind it is functional. The source holds these as a separate data set.
For assay [9], the target named is Sodium channel protein type 5 subunit alpha (Homo sapiens, UniProt Q14524). In kind it is functional, cell-based.
Sodium channel protein type 5 subunit alpha, sequence (Q14524 whole entry): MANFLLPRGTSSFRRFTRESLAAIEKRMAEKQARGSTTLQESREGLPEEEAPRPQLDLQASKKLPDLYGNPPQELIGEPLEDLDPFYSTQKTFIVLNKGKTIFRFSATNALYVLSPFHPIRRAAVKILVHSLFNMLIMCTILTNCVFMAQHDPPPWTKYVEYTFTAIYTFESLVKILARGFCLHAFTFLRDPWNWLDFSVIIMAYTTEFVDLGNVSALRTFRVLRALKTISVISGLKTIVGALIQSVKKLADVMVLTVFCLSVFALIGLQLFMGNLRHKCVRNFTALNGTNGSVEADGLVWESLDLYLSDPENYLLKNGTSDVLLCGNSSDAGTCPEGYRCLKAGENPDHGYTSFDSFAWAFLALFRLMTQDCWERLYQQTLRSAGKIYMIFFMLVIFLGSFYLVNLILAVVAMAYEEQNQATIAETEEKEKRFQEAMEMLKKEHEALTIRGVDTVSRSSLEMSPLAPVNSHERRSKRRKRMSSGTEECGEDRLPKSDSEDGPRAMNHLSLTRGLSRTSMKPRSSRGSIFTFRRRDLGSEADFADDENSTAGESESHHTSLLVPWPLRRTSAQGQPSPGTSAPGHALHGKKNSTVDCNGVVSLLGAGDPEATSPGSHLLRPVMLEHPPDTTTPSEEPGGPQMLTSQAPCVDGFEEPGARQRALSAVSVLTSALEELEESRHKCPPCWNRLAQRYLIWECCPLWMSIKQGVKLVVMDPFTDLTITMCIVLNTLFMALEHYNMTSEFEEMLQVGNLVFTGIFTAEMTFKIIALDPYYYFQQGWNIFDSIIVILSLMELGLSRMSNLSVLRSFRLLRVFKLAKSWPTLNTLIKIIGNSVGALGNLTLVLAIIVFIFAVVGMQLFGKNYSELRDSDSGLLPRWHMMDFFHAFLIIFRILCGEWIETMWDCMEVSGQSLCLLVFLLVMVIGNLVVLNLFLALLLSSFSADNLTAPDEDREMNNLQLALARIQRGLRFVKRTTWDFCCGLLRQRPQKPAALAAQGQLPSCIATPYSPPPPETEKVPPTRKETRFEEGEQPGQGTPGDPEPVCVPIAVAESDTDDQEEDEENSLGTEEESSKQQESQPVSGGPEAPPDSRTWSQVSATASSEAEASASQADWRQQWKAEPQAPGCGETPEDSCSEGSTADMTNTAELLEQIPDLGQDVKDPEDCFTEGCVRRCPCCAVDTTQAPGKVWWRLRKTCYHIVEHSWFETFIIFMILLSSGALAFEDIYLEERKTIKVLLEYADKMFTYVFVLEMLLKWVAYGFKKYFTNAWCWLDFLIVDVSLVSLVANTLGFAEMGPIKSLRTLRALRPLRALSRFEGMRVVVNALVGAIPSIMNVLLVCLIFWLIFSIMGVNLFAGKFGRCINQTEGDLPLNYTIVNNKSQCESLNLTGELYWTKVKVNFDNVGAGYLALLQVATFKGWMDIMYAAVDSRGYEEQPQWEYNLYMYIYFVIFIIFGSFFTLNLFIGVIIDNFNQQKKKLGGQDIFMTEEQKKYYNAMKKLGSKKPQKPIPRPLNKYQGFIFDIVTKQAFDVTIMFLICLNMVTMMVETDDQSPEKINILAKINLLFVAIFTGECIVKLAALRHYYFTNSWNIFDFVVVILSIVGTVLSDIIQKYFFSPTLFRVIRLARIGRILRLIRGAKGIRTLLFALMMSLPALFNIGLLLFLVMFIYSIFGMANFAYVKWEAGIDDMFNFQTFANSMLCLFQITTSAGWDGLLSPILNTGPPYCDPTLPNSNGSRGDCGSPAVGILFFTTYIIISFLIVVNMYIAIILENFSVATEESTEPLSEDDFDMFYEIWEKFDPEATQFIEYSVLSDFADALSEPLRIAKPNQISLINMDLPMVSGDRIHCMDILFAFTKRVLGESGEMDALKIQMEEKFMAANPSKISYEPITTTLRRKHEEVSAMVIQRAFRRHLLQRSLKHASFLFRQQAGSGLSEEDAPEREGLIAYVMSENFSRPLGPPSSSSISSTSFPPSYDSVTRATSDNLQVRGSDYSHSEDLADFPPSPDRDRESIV
For assay [10], the target named is D(1A) dopamine receptor (Homo sapiens, UniProt P21728). It counts as functional, cell-based.
D(1A) dopamine receptor, sequence (P21728 whole entry): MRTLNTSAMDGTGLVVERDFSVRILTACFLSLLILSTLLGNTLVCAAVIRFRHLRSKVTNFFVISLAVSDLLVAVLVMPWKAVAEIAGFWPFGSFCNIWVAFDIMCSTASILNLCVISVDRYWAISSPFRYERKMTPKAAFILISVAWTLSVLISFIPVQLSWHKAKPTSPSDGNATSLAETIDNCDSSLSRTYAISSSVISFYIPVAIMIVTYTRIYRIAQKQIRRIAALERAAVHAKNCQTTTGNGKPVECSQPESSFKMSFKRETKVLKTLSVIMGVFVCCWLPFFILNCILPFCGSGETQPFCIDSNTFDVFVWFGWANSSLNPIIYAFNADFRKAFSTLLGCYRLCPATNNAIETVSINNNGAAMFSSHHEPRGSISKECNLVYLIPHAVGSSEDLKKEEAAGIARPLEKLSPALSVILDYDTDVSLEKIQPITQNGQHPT
Also: assay procedure not described here.

Turning to `CC(=O)OC(C)C[N+](C)(C)C` (stereo not given) [METHACHOLINE], the AC50 in [1] came to 9.7 µM.

`O=C(Nc1ccccc1)OCC(CN1CCCCC1)OC(=O)Nc1ccccc1` (stereo not given) [DIPERODON]: the AC50 in assay [2] and in [3] was > 30 µM in each case.

For the compound `CCCC(=O)N1CCCN(c2nc(N)c3cc(OC)c(OC)cc3n2)CC1` [BUNAZOSIN], in [4], the AC50 was > 30 µM.

As for `O=C1CCC(N2C(=O)c3ccccc3C2=O)C(=O)N1` (stereo not given) [THALIDOMIDE], the AC50 in [5] was > 10 µM.

Regarding `COc1cc2c(cc1OC)[C@H]1C[C@@H](OC(=O)[C@@H](N)C(C)C)[C@H](CC(C)C)CN1CC2` [VALBENAZINE], the AC50 in assay [6] came out at 0.46 µM. This counts as sub-micromolar.

`CC(=O)O[C@]1(C(C)=O)CC[C@H]2[C@@H]3C[C@H](C)C4=CC(=O)CC[C@]4(C)[C@H]3CC[C@@]21C` [MEDROXYPROGESTERONE ACETATE]: the AC50 in assay [7] and in [8] was > 30 µM in each case.

In the case of `O=P(O)(O)C(O)(Cc1cccnc1)P(=O)(O)O` [RISEDRONIC ACID], the AC50 in assay [9] was > 30 µM.

Take `C[N+](C)(C)CCOC(N)=O` [CARBAMOYLCHOLINE]: in assay [10], the AC50 was > 30 µM.
